Read-outs that look alike come from different tables or passages of the source.
Columns and labels:
[1] = biological target: Dopamine receptor D1, DRD1 (h) (Homo sapiens, UniProt P21728); settings: control SCH 23390
[2] = biological target: Sodium-dependent dopamine transporter, SLC6A3 (h) (Homo sapiens, UniProt Q01959); settings: control BTCP
[3] = biological target: T1, Angiotensin II receptor Type-1, AGTR1 (h) (Homo sapiens, UniProt P30556); assay: IPP AGTR1 binding; settings: ligand/control Saralasin
T1 construct: purchased Eurofins Cerep (SafetyScreen44-based IPP panel)
T1 sequence (P30556 1-359): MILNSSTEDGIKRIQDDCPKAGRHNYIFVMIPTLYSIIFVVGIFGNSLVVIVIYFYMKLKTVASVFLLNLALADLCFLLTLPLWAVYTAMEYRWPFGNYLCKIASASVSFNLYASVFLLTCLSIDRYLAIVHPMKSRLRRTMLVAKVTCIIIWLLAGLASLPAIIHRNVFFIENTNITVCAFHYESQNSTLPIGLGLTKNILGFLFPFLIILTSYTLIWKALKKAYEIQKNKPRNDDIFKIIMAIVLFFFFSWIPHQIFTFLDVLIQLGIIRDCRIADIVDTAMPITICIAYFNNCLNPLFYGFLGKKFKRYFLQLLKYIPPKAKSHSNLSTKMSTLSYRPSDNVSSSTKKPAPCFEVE

[4] = biological target: T2, 5-hydroxytryptamine receptor 3A, HTR3A (h) (Homo sapiens, UniProt P46098); settings: control MDL 72222
T2 sequence (P46098 24-478): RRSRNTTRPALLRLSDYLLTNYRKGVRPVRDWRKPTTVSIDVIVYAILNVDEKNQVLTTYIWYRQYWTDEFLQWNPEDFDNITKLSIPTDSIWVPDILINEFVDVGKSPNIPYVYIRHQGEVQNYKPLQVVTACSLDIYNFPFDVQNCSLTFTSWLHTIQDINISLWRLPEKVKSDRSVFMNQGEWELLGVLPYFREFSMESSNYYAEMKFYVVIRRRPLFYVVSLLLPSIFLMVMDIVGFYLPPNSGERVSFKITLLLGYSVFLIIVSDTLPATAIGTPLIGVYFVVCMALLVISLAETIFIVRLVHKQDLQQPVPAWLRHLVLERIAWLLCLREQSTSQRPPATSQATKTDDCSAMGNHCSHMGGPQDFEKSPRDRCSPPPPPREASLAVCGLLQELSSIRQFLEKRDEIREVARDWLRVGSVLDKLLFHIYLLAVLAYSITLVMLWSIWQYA

[5] = biological target: Delta-type opioid receptor, OPRD1 (h) (Homo sapiens, UniProt P41143); settings: ligand/control DPDPE
[6] = biological target: cAMP-specific 3',5'-cyclic phosphodiesterase 4D, PDE4D (h) (Homo sapiens, UniProt Q08499); assay: IPP PDE4D enzymatic activity; type: biochemical; settings: control Ro 20-1724
[7] = biological target: Potassium voltage-gated channel subfamily H member 2 hERG, KCNH2 (h) (Homo sapiens, UniProt Q12809)
[8] = Assignment of risk classifications to benchmark chemical-exposure scenarios; settings: for risk: from table S1
[9] = biological target: T3, Beta-2 adrenergic receptor, ADRB2 (h) (Homo sapiens, UniProt P07550); assay: IPP ADRB2 binding (antagonist radioligand); settings: control ICI 118551
T3 construct: purchased Eurofins Cerep (SafetyScreen44-based IPP panel)

HepG2 cells = assay: High-throughput transcriptomics (HTTr, TempO-Seq), HepG2, 24 h; type: cell-based, human; settings: HepG2; for pod_httr_bifrost PoD: HTTr BIFROST PoD; for podl_path_minbmd PoD: HTTr minimum pathway BMD(L)
Experimental: HepG2, HepaRG, and MCF7 cells were treated with each compound for 24 h across a dose range of 7 concentrations and lysed using TempO-Seq lysis buffer (BioSpyder Technologies, proprietary kit, see [Middleton et al. 2022] for method details). Sequencing was performed using TempO-Seq (BioClavis) version 2 of the human whole transcriptome panel and analyzed as described previously in Middleton et al.

[10] = test system: Gamma-aminobutyric acid receptor subunit alpha-1 BZD site, GABRA1A (r); type: binding, rat
[11] = biological target: T4, Estrogen receptor, ER1 (h) (Homo sapiens, UniProt P03372); assay: IPP ER1 coactivator recruitment (agonist); type: biochemical; settings: estriol
T4 construct: purchased Eurofins Cerep (SafetyScreen44-based IPP panel)
T4 sequence (P03372 1-595): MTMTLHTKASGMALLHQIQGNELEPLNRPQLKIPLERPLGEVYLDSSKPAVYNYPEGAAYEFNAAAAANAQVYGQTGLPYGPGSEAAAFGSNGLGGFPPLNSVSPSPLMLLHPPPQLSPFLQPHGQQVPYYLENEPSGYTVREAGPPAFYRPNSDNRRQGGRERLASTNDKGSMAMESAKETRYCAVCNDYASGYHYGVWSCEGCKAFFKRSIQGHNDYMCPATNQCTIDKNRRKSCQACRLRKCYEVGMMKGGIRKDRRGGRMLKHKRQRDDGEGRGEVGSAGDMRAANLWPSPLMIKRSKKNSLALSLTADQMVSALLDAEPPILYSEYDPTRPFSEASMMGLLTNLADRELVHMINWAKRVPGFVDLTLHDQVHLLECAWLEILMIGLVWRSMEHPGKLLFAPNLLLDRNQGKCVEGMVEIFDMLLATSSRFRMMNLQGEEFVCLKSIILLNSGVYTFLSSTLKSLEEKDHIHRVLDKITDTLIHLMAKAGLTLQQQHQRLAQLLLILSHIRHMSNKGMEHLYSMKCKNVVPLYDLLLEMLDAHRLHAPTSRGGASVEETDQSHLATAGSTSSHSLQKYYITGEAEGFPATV

[12] = biological target: T4, Estrogen receptor, ER1 (h); assay: IPP ER1 coactivator recruitment (antagonist); type: biochemical; settings: estriol
[13] = test system: Sodium channel protein type 5 subunit alpha (site 2), SCN5A (r); type: binding, rat
[14] = IPP screening at 10 uM, control diazepam
[15] = 100 uM, * denotes assay interference (2-Amino-6-chloro-4-nitrophenol, HC Red 3)

Sequence of cAMP-specific 3',5'-cyclic phosphodiesterase 4D, PDE4D (h) (Q08499 whole entry): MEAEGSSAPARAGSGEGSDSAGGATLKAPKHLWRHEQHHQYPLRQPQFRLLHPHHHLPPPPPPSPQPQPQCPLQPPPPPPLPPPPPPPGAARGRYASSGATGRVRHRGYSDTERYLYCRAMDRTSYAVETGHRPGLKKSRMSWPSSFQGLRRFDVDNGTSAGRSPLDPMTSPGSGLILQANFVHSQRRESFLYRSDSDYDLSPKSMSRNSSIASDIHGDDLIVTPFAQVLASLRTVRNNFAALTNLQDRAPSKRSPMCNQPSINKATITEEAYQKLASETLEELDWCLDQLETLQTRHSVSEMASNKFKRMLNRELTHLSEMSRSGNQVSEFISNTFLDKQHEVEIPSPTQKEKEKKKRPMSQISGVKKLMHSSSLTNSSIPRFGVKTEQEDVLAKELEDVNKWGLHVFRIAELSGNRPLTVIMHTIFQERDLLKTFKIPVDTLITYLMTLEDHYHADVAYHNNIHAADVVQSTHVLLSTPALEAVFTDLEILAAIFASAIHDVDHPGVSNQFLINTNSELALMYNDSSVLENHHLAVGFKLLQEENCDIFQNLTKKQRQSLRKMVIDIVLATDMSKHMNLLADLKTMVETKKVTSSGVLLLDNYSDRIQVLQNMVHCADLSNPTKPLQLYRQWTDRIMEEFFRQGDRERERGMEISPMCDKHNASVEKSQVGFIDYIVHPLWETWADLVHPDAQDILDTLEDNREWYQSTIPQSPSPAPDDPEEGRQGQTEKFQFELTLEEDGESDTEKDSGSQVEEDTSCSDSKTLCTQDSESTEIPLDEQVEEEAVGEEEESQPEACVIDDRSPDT
Sequence of Potassium voltage-gated channel subfamily H member 2 hERG, KCNH2 (h) (Q12809 whole entry): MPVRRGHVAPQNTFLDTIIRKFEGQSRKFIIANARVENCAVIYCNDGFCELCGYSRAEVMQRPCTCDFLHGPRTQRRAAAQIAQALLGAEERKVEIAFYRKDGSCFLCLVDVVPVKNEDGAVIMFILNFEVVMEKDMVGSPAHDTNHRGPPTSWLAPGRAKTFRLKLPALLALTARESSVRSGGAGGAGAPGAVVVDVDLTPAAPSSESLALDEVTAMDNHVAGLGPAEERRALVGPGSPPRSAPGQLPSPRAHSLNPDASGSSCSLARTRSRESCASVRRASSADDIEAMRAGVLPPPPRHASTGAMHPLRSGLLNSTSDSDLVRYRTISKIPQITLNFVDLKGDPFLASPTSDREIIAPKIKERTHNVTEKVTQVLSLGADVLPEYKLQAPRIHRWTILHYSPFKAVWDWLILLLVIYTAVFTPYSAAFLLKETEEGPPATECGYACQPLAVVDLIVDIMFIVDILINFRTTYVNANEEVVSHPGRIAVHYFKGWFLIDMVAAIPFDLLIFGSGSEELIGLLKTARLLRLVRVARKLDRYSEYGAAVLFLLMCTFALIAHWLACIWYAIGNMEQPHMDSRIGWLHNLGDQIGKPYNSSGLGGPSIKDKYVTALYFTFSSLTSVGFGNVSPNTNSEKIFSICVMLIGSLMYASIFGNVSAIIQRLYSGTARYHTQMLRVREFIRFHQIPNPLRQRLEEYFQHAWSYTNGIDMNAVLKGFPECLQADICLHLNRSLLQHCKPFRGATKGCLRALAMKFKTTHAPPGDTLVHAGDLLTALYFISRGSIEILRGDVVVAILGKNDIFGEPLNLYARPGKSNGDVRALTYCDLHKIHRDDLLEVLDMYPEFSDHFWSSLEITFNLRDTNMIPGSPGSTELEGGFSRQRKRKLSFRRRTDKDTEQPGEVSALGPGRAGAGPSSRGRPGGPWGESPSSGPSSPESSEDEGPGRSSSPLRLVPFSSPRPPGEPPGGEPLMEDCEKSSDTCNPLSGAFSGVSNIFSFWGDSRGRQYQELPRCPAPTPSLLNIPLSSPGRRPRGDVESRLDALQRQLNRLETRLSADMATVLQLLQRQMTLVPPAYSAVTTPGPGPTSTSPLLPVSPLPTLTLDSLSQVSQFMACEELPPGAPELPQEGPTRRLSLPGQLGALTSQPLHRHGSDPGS
Sequence of Dopamine receptor D1, DRD1 (h) (P21728 whole entry): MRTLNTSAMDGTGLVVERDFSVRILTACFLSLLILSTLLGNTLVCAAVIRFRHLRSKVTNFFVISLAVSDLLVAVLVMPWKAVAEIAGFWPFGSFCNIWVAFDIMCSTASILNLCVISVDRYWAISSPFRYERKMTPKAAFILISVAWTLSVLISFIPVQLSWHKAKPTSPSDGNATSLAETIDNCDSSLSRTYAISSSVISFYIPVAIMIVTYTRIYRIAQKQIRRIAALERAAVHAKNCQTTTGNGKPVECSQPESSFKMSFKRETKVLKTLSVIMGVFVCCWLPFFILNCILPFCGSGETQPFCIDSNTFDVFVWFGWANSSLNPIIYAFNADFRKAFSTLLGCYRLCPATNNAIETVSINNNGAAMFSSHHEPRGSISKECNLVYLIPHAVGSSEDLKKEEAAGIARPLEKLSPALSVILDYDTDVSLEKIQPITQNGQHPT
Sequence of Delta-type opioid receptor, OPRD1 (h) (P41143 whole entry): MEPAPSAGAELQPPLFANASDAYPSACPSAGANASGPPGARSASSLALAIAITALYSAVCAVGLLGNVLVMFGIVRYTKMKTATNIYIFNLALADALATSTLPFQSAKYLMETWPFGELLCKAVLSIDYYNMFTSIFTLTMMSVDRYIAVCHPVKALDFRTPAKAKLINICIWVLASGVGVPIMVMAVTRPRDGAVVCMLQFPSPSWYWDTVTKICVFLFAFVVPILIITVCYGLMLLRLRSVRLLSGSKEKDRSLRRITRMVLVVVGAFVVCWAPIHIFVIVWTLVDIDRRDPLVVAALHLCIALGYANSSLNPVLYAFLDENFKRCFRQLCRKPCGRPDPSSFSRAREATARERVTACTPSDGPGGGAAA
Sequence of Sodium-dependent dopamine transporter, SLC6A3 (h) (Q01959 whole entry): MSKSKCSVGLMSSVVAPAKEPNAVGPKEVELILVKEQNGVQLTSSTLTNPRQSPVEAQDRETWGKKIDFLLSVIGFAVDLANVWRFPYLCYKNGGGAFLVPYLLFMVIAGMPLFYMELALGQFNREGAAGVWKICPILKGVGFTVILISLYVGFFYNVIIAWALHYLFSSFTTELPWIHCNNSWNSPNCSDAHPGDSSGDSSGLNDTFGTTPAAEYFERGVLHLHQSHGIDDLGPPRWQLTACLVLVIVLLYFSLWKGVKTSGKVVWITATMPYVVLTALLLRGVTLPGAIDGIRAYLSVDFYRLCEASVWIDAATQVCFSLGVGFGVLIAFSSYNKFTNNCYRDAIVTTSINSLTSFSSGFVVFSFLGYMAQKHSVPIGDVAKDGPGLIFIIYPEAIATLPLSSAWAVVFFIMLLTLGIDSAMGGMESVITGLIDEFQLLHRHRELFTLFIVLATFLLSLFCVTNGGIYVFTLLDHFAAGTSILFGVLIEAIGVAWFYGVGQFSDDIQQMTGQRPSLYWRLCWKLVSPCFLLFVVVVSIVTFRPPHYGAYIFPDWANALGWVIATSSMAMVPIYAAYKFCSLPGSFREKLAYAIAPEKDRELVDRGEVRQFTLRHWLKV

CC(C)(C)c1ccc(CCOc2ncnc3ccccc23)cc1 [Fenazaquin, 4-[2-(4-tert-Butylphenyl)ethoxy]quinazoline]
Specific binding ([1]; IPP screening at 10 uM): 4.5% | Specific binding ([2]; IPP screening at 10 uM): 65.2% | IPP screening %, Specific binding ([3]; 10 uM): 8.6% | Specific binding ([4]; IPP screening at 10 uM): -0.1% | IPP screening %, Specific binding ([5]; 10 uM): 46.9% | Enzymatic activity ([6]; IPP screening at 10 uM): 14.7% | IPP screening %, Specific binding ([7]; 10 uM, [3H] Dofetilide, control Terfenadine): 34.9% | Risk Classification ([8]; Oral, residue, 0.005 mg/kg bw/day): Low risk | risk ([8]; Oral, 17% ADI 0.005 mg/kg bw/day, Food residue, Exp2): 0 | risk ([8]; Oral, ADI 0.005 mg/kg bw/day, Food residue, Exp3): 0 | Specific binding ([9]; IPP screening at 10 uM): -1.2% | pod_httr_bifrost PoD (HepG2 cells): 0.0002567 µM | podl_path_minbmd PoD (HepG2 cells): 0.002178 µM | Specific binding [10, 14]: 7.6% | IPP screening %, Coactivator recruitment ([11]; 10 uM): -2.0% | IPP screening %, Coactivator recruitment ([12]; 10 uM): 4.0% | Specific binding ([13]; IPP screening at 10 uM, control veratridine): 39.5%

CCOP(=S)(OCC)Oc1nc(Cl)c(Cl)cc1Cl [Chlorpyrifos, O,O-Diethyl O-(3,5,6-trichloropyridin-2-yl) phosphorothioate]
Specific binding ([1]; IPP screening at 10 uM): 1.9% | Specific binding ([2]; IPP screening at 10 uM): 34.7% | IPP screening %, Specific binding ([3]; 10 uM): 0.5% | Specific binding ([4]; IPP screening at 10 uM): -1.0% | IPP screening %, Specific binding ([5]; 10 uM): 2.5% | Enzymatic activity ([6]; IPP screening at 10 uM): 51.8% | risk ([8]; Oral, 0.1 mg/kg, Tablet, Exp3): 1 | Specific binding ([9]; IPP screening at 10 uM): -2.4% | pod_httr_bifrost PoD (HepG2 cells): 0.000303 µM | podl_path_minbmd PoD (HepG2 cells): 2.42 µM | Specific binding [10, 14]: -11.0% | IPP screening %, Coactivator recruitment ([11]; 10 uM): -1.0% | IPP screening %, Coactivator recruitment ([12]; 10 uM): 9.0% | Specific binding [13]: 13.4%

CC1(C)O[C@@H]2[C@@H](CO[C@@]3(COS(N)(=O)=O)OC(C)(C)O[C@@H]23)O1 [Topiramate, [(3aS,5aR,8aR,8bS)-2,2,7,7-Tetramethyltetrahydro-2H,3aH,7H-bis[1,3]dioxolo[4,5-b:4',5'-d]pyran-3a-yl]methyl sulfamate (non-preferred name)]
Specific binding ([1]; IPP screening at 100 uM): -2.4% | Specific binding ([2]; IPP screening at 100 uM): 0.1% | IPP screening %, Specific binding ([3]; 100 uM): -7.3% | Specific binding ([4]; IPP screening at 100 uM): -1.3% | IPP screening %, Specific binding ([5]; 100 uM): 2.3% | Enzymatic activity ([6]; IPP screening at 100 uM): 27.9% | IPP screening %, Specific binding ([7]; human): -13.1% | Risk Classification ([8]; Oral 50 mg/day): High risk | Risk Classification ([8]; Oral 500 mg/day): High risk | risk ([8]; Oral, High therapeutic, 500mg/day, Tablet, Exp1): 1 | risk ([8]; Oral, Low therapeutic, 50mg/day, Tablet, Exp2): 1 | Specific binding ([9]; IPP screening at 100 uM): 3.5% | pod_httr_bifrost PoD (HepG2 cells): 3696.73 µM | podl_path_minbmd PoD (HepG2 cells): 6631.79 µM | Specific binding ([10]; IPP screening at 100 uM, control diazepam): 9.7% | IPP screening %, Coactivator recruitment [11, 15]: -1.0% | IPP screening %, Coactivator recruitment [12, 15]: -1.0% | Specific binding ([13]; IPP screening at 100 uM, control veratridine): 30.2%

mixture of 2- and 3-tert-butyl-4-methoxyphenol [Butylated Hydroxyanisole]
Specific binding ([1]; IPP screening at 10 uM): 3.5% | Specific binding ([2]; IPP screening at 10 uM): 20.6% | IPP screening %, Specific binding ([3]; 10 uM): -1.0% | Specific binding ([4]; IPP screening at 10 uM): 15.3% | IPP screening %, Specific binding ([5]; 10 uM): -2.3% | Enzymatic activity ([6]; IPP screening at 10 uM): 12.2% | Specific binding ([9]; IPP screening at 10 uM): 0.4% | Specific binding [10]: -10.9% | Specific binding [13]: 16.8%

(4S,4aR,5S,5aR,6S,12aS)-4-(Dimethylamino)-3,5,6,10,12,12a-hexahydroxy-6-methyl-1,11-dioxo-1,4,4a,5,5a,6,11,12a-octahydrotetracene-2-carboxamide--hydrogen chloride (1/1) [Oxytetracycline hydrochloride]
Specific binding ([1]; IPP screening at 10 uM): 1.4% | Specific binding ([2]; IPP screening at 10 uM): -0.9% | IPP screening %, Specific binding ([3]; 10 uM): -8.1% | Specific binding ([4]; IPP screening at 10 uM): -6.5% | IPP screening %, Specific binding ([5]; 10 uM): -5.6% | Enzymatic activity ([6]; IPP screening at 10 uM): 9.6% | IPP screening %, Specific binding [7]: -10.2% | Specific binding ([9]; IPP screening at 10 uM): 0.6% | Specific binding [10, 14]: -0.4% | Specific binding [13]: 10.5%
